Reference: paper PMC3540140 (Journal of molecular biology, 2012)

Tests used:
[1] = target: JNK1 (Homo sapiens, UniProt P45983); test: IMAP-based FP kinase assay; format: biochemical
[2] = target: C-terminal truncated form of human JNK1α1 (residues 1–364) (human, UniProt P45983-2 1-364); test: crystal structure
Chain of C-terminal truncated form of human JNK1α1 (residues 1–364) (P45983 1-364): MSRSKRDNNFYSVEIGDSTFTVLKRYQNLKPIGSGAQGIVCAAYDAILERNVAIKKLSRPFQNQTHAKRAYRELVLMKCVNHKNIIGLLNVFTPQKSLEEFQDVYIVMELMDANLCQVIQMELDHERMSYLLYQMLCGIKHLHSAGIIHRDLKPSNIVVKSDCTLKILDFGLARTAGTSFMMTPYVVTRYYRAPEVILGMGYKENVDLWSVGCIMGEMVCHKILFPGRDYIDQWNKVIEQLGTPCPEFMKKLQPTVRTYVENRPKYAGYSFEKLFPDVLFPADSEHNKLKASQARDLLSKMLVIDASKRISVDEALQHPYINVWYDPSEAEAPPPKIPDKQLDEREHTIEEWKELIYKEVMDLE

RPKRPTTLNLF [peptide fragment of JIP1 (pepJIP1)]: binds [2].
